The values that follow come from patent US20200054608A1, “ALPHA ADRENERGIC AGONISTS FOR THE TREATMENT OF TISSUE TRAUMA” (Allergan, Inc., priority 2013, published 2020).

Experiment [1] concerns SKH1 hairless mice. The experiment can be described thus: UVB-induced sunburn model: histological examination of skin samples 48 hr following UVB exposure. Type of experiment: in vivo. Particulars: for outcome of healing (overall healing, histology) / mice with overall epidermal healing fair to good: 48 hr; for outcome of healing (overall healing, histology): hydrochloride; for mice with overall epidermal healing fair to good: vehicle 0%. The protocol:
(§1) A xenon arc lamp (Newport Corp, USA) was used as a source of UVB. SKH1 hairless mice, lying on their stomachs with their left sides covered, were exposed to 120 mJ/cm2 UVB radiation. Regions of back skin were treated topically with oxymetazoline hydrochloride 0.5% gel at 20 min, 4 hr or 8 hr post-UVB. An additional group had the vehicle applied topically at 20 min post UVB exposure. Erythema on the exposed and unexposed back was measured using a chromameter (Konica Minolta) at 2 and 4 hr post-UVB exposure. Skin samples were collected 48 hr following UVB exposure and examined histologically to assess the extent of injury.

Experiment [2] has as its system SKH1 hairless mice. Briefly: UVB-induced sunburn model: erythema on back skin measured with a chromameter. It is filed as in vivo. As to the method:
as §1

On to oxymetazoline hydrochloride, for which the epidermal separation entry is listed as “reduced the occurrence and/or severity of epidermal separation” in the experiment with SKH1 hairless mice [1] (0.5% topical applied 20 minutes post UVB, 48 hours, n=6); “reduced the occurrence and/or severity of epidermal separation” in the experiment on SKH1 hairless mice [1] (0.5% topical applied 4 hours post UVB, 48 hours, n=6); “reduced the occurrence and/or severity of epidermal separation” with SKH1 hairless mice [1] (0.5% topical applied 8 hours post UVB, 48 hours, n=6). Besides, the “outcome of healing (overall healing, histology)” value is “potentially improved the outcome” in the experiment with SKH1 hairless mice [1] (0.5% topical applied 20 minutes post UVB, vs vehicle controls); “slightly improved the outcome of healing” in the experiment on SKH1 hairless mice [1] (0.5% topical applied 20 minutes post UVB, vs vehicle controls, listed as oxymetazoline); “more positive outcome” with SKH1 hairless mice [1] (0.5% topical applied 4 hours post UVB, vs concurrent and historical vehicle controls); “improved the outcome of healing” with SKH1 hairless mice [1] (0.5% topical applied 4 hours post UVB, vs concurrent and historical vehicle controls, listed as oxymetazoline); “more positive outcome” in the experiment with SKH1 hairless mice [1] (0.5% topical applied 8 hours post UVB, vs concurrent and historical vehicle controls); “improved the outcome of healing” in the experiment on SKH1 hairless mice [1] (0.5% topical applied 8 hours post UVB, vs concurrent and historical vehicle controls, listed as oxymetazoline). Further, in the experiment on SKH1 hairless mice [1] (0.5% topical applied 8 hours following injury, skin collected at 48 hours, vs vehicle-treated), the “adaptive response in histological sections (epidermal proliferation, adaptive hyperplasia)” value is “greater degree of a positive adaptive response”. The “epidermal hyperplasia (adaptive healing response)” value in the experiment on SKH1 hairless mice [1] (0.5% topical applied 8 hours following the injury, 48 hours, n=6) is “resulted in more individuals who had progressed to advanced healing”. In addition, the “mice with overall epidermal healing fair to good” value in the experiment on SKH1 hairless mice [1] (0.5% topical applied at 20 minutes post UVB, n=6) stood at 33%; with SKH1 hairless mice [1] (0.5% topical applied at 4 hours post UVB, n=6), 50%; in the experiment on SKH1 hairless mice [1] (0.5% topical applied at 8 hours post UVB, n=6), 67%. Besides, the inhibition of erythema entry in the experiment on SKH1 hairless mice [2] (0.5% topical gel applied 20 minutes following 120 mJ/cm2 UVB, 2 hr timepoint, p<0.001) is “almost completely inhibited the erythema”; in the experiment with SKH1 hairless mice [2] (0.5% topical gel applied 20 minutes following UVB, 4 hr post-UVB exposure), “no inhibition of the erythema”.
